Measured values taken from US20260265244A1, “HETEROCYCLIC COMPOUNDS AS STING ANTAGONISTS” (Boehringer Ingelheim International GmbH, priority 2022, published 2026).

What was measured:
[1] = molecular target: T1, cGAMP binding domain of wild-type (GRR) human STING, residues 155-341 (Homo sapiens, UniProt Q86WV6, H232R); assay: Increase of stability of STING protein against thermal denaturation, Differential Scanning Fluorimetry (DSF)
T1 construct: His-TEV-hSTING (WT); TEV protease cleavage site (N); made in house; host or cells: E. coli BL21 DE3
Method: Dye fluorescence is quenched in aqueous environment and increases upon association of the dye with the hydrophobic parts of the unfolding protein. […] The inflection point of the curve represents the “melting” temperature of the protein (Tm) which is calculated numerically using the Boltzmann equation.
Method: The thermal stability of the STING protein was measured using a specific expression construct of the cGAMP binding domain of wild-type (GRR) human STING comprising residues 155-341 and a N-terminal 8×His-tag (SEQ ID NO: 3) in assay buffer containing 20 mM Tris, 150 mM NaCl at pH7.5.
The assay uses Hard-Shell® PCR Plates 384-Well CLR/WHT (Catalog #HSP3805, BIO-RAD), Microseal® ‘B’ Adhesive Seals for PCR Plates (Catalog #MSB-1001, BIO-RAD) and was run on a CFX384 Real-Time System (Bio-Rad).
A DMSO stock solution of SYPRO orange (SIGMA S5692-500UL) was prepared.
Compound stock solutions (10 mM in DMSO) were diluted 1:2 in DMSO to an intermediate compound concentration of 5 mM and then further diluted 1:40 in assay buffer resulting in a compound concentration of 125 μM and 2.5% DMSO.
Fluorescent dye stock solution (5000×SYPRO Orange) was then mixed with target protein and buffer to a concentration of 15 uM Protein and 25×SYPRO Orange. 2 ul of this protein-dye-mixture was added to 8 ul compound solution. Final volume was 10 uL. 3-6 well positions were used as negative control (protein with 2% DMSO). The plates were prepared for duplicate measurement and centrifuged for 2 min at 1000 g. In the measurement, 160 cycles of 0.5° C. were used (temperature ramp 15 s/cycle, 15° C. to 95° C.).
Final Assay concentrations for compound characterization were as follows: 100 uM compound, 3 uM target protein, 5×SYPRO Orange, 2% DMSO in 10 ul. All dispensing steps were performed using a HamiltonStar pipetting robot (Hamilton).
Dissociation curves were processed in Bio-Rad CFX Manager. Peak type was set to “negative”. Compound codes for screen were assigned in the plate layout.
Two replicates of TM measurements were averaged, and the standard deviation was calculated. In cases of SD>1.5° C. the measurement was repeated.
The melting point (Tm) obtained for STING protein alone was subtracted from T obtained for protein incubated with ligand to generate ΔTm values.
Protein production and purification: The protein used for the biophysical experiments was a recombinant human STING protein comprising its cytosolic ectodomain. A codon optimized DNA sequence (for expression in Escherichia coli) encoding amino acid residues 155 to 341 (Swiss Prot Q86WV6) of human STING (WT) was synthesized by GeneArt (Regensburg, Germany) and inserted into a pET17b E. coli expression vector. The protein construct encodes an N-terminal 8×His-tag (SEQ ID NO: 3) followed by tobacco etch virus protease (TEV) cleavage site and the above STING gene sequence. The resulting protein sequence for the used STING variant is listed below:
For expression of recombinant human STING above construct was transformed into E. coli BL21 DE3 strain and grown in shake flasks in LB-medium at 37° C. Expression was induced by addition of isopropyl β-D-1-thiogalactopyranoside to a final concentration of 1 mM and cultures shaken overnight. Cell pellets were centrifuged and stored at −70° C. until further use. Protein was purified by cell thawing in lysis buffer (20 mM TRIS-HCl, pH 8, 300 mM NaCl, 2 mM mercaptoethanol, 20 mM imidazole, Complete Protease Inhibitor (Roche) and DNase (Roche)), followed by metal affinity purification using Ni-NTA resins and elution buffer consisting of 20 mM TRIS-HCl, pH 8, 300 mM NaCl, 2 mM mercaptoethanol, 300 mM imidazole and size exclusion chromatography in running buffer (20 mM TRIS-HCl, pH 8, 100 mM NaCl, 2 mM DTT). The peak fraction was collected and concentrated to 2.5 mg/mL.

[2] = system: STING inhibition in human whole blood (IFNα2α production); assay: Human whole blood assay (HWBA): cGAMP-stimulated IFNα2α production; format: cell-based; conditions: Homo sapiens
Method: For the detection of STING inhibition in physiological environment human whole blood was stimulated by the cyclic dinucleotide cGAMP. Pathway activity was monitored by measuring the IFNα2α production.
Assay method: Compounds were delivered as 10 mM DMSO solution and serial diluted and transferred to the 96-well Cell culture Plate (Corning #3595), prefilled with 20 μl OptiMEM (Gibco #11058-021) in each well, using an Echo acoustic dispenser. Typically, 8 concentrations were used with the highest concentration at 10 μM in the final assay volume followed by ~1:5 dilution steps. DMSO concentration was set to 0.1% in the final assay volume. The 96 well assay plate contained 9 test compounds, a reference compound and DMSO in control wells.
Collection of human whole blood from 3 or more healthy donors (male or female, no medication for 7 days, exception contraceptive and thyroxine) as Na-citrate blood (e.g. 3.8% in Monovettes from Sarstedt) is conducted in parallel. Whole blood was kept at room temperature for a maximum of 3 hours after collection until use in the assay.
160 μl of the whole blood samples were transferred to each well of the 96-well assay plates filled with compound/OptiMEM. All assay plates are prepared as duplicates with blood from different donors. Blood plates were kept at room temperature for 60 minutes and continuous shaking with 450 rpm, covered with the lid, but not sealed.
A 10× cGAMP assay solution was diluted from a 2 mM stock solution in 1×HBSS immediately before use at room temperature. 20 μl of the 10× cGAMP/HBSS were added to all compound and all high control wells, whereas HBSS only was added to all low control wells.
After covering assay plates with aera seals and the lid, blood plates were kept at room temperature for 30 minutes and continuous shaking with 450 rpm, followed by an overnight incubation of 22 h at 37° C. in the incubator, without shaking.
For the detection of IFNα-2α in human plasma, the biotinylated capture antibody (Antibody set IFNA2, Meso Scale Diagnostics #B21VH-3, including coating and capture antibody) was diluted 1:17.5 in Diluent 100 (Meso Scale Diagnostics #R50AA-4, according to the manufacturer. U-Plex MSD GOLD 96-well Small Spot Streptavidin SECTOR Plates (Meso Scale Diagnostics #L45SA-5) were coated with 25 μl diluted capture antibody. Coated plates were incubated for 60 min at room temperature under continuous shaking at 700 rpm. MSD IFNα-2α plates were washed three times with 150 μl wash buffer (1×HBSS, 0.05% Tween).
After blocking the plates with 100 μl block solution/well (1×HBSS with 0.2% Tween, 2% BSA) for 60 min at room temperature and continuous shaking at 700 rpm, plates were emptied as dry as possible by dumping just before continuing with the human plasma. Whole Blood assay plates were centrifuged at 1600 rpm for 10 minutes. 25 μl of supernatant was transferred with a pipetting robotics from each whole blood plate to the corresponding IFNα-2α plate. Plates were sealed with microplate seals and kept at room temperature again under continuous shaking at 700 rpm for two hours. Next MSD IFNα-2α plates were washed three times with 150 μl wash buffer (1×HBSS, 0.05% Tween), before adding 25 μl MSD SULFO-TAG IFNα-2α Antibody solution (1:100 diluted in Diluent 3 (Meso Scale Diagnostics #R50AP-2) to each well of the plates. Afterwards plates were sealed with microplate seals and kept at room temperature again under continuous shaking at 700 rpm for two hours. Finally MSD IFNα-2α plates were washed three times with 150 μl wash buffer (1×HBSS, 0.05% Tween). 150 μl 2×Read buffer was added to each well and plates were immediately measured with the MSD Sector S600 Reader using the vendor barcode.
Data evaluation and calculation: For data evaluation and calculation, % control calculation of each well was based on the mean of high (cGAMP stimulated control) and mean of low (unstimulated control) controls by using the following formula: […]

[3] = system: STING; conditions: in vitro and in BLM-induced SSc mice; cited from earlier work

T1 sequence (Q86WV6 with tags, fused parts or gaps H232R): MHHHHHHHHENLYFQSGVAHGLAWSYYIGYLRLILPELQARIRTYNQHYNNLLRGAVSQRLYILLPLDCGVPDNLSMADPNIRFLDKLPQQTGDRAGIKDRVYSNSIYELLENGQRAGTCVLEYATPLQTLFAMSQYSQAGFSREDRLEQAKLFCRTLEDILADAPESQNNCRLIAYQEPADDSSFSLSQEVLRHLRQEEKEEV

Compound	DSF [1] [K]	IC50 [2] [nM]	fibrosis and vasculopathy [3]
Cn1cc2cc(-c3nc(-c4cccc5nn(C[C@H](O)c6ccc(OCc7ccccc7)cc6)cc45)c(C4CC4)n3C)c(C3CC3)nc2n1 [Example 4, (1R)-1-[4-(benzyloxy)phenyl]-2-[4-(5-cyclopropyl-2-{6-cyclopropyl-2-methyl-2H-pyrazolo[3,4-b]pyridin-5-yl}-1-methyl-1H-imidazol-4-yl)-2H-indazol-2-yl]ethan-1-ol]	27	800	–
CCOc1nc2nn(C)cc2cc1-n1nc(-c2cccc3nn(C[C@H](O)c4ccccc4)cc23)c(C(C)C)c1C [Example 5, (1R)-2-[4-(1-{6-ethoxy-2-methyl-2H-pyrazolo[3,4-b]pyridin-5-yl}-5-methyl-4-(propan-2-yl)-1H-pyrazol-3-yl)-2H-indazol-2-yl]-1-phenylethan-1-ol]	–	61	–
Cn1c(-c2cc3cn(CCCN4CCOCC4)nc3nc2C2CC2)nc(-c2cccc3nn(C[C@H](O)c4ccccc4)cc23)c1C1CC1 [Example 11, (1R)-2-[4-(5-cyclopropyl-2-{6-cyclopropyl-2-[3-(morpholin-4-yl)propyl]-2H-pyrazolo[3,4-b]pyridin-5-yl}-1-methyl-1H-imidazol-4-yl)-2H-indazol-2-yl]-1-phenylethan-1-ol]	30	70	–
Cc1nc2nn(CC3COCCO3)cc2cc1-n1nc(-c2cccc3nn(C[C@H](O)c4ccccc4)cc23)c(C(C)C)c1C (stereo partly drawn) [Example 31, (1R)-2-[4-(1-{2-[(1,4-dioxan-2-yl)methyl]-6-methyl-2H-pyrazolo[3,4-b]pyridin-5-yl}-5-methyl-4-(propan-2-yl)-1H-pyrazol-3-yl)-2H-indazol-2-yl]-1-phenylethan-1-ol]	27	110	–
COCCc1nc2nn(C)cc2cc1-n1nc(-c2cccc3nn(C[C@H](O)c4ccccc4)cc23)c(C(C)C)c1C [Example 38, (1R)-2-(4-{1-[6-(2-methoxyethyl)-2-methyl-2H-pyrazolo[3,4-b]pyridin-5-yl]-5-methyl-4-(propan-2-yl)-1H-pyrazol-3-yl}-2H-indazol-2-yl)-1-phenylethan-1-ol]	26	130	–
Cc1nc2nn(CCCN(C)C)cc2cc1-n1nc(-c2cccc3nn(C[C@H](O)c4ccccc4)cc23)c(C(C)C)c1C [Example 43, (1R)-2-[4-(1-{2-[3-(dimethylamino)propyl]-6-methyl-2H-pyrazolo[3,4-b]pyridin-5-yl}-5-methyl-4-(propan-2-yl)-1H-pyrazol-3-yl)-2H-indazol-2-yl]-1-phenylethan-1-ol]	–	140	–
COc1nc2nn(C)cc2cc1-n1nc(-c2cccc3nn(C[C@H](O)c4ccccc4)cc23)c(C(C)C)c1C [Example 59, (1R)-2-[4-(1-{6-methoxy-2-methyl-2H-pyrazolo[3,4-b]pyridin-5-yl}-5-methyl-4-(propan-2-yl)-1H-pyrazol-3-yl)-2H-indazol-2-yl]-1-phenylethan-1-ol]	27	240	–
C=Cn1cc2cc(-c3nc(-c4cccc5nn(C[C@H](O)c6ccccc6)cc45)c(C4CC4)n3C)c(C3CC3)nc2n1 [Example 61, (1R)-2-[4-(5-cyclopropyl-2-{6-cyclopropyl-2-ethenyl-2H-pyrazolo[3,4-b]pyridin-5-yl}-1-methyl-1H-imidazol-4-yl)-2H-indazol-2-yl]-1-phenylethan-1-ol]	30	270	–
Cc1c(C(C)C)c(-c2cccc3nn(C[C@H](O)c4ccccc4)cc23)nn1-c1cc2cn(C)nc2nc1OCCO [Example 71, 2-{[5-(3-{2-[(2R)-2-hydroxy-2-phenylethyl]-2H-indazol-4-yl}-5-methyl-4-(propan-2-yl)-1H-pyrazol-1-yl)-2-methyl-2H-pyrazolo[3,4-b]pyridin-6-yl]oxy}ethan-1-ol]	26	370	–
Cc1nc2nn(CP(C)(C)=O)cc2cc1-n1nc(-c2cccc3nn(C[C@H](O)c4ccccc4)cc23)c(C(C)C)c1C [Example 77, (1R)-2-[4-(1-{2-[(dimethylphosphoryl)methyl]-6-methyl-2H-pyrazolo[3,4-b]pyridin-5-yl}-5-methyl-4-(propan-2-yl)-1H-pyrazol-3-yl)-2H-indazol-2-yl]-1-phenylethan-1-ol]	27	550	–
Cc1nc2nn(CCC#N)cc2cc1-n1nc(-c2cccc3nn(C[C@H](O)c4ccccc4)cc23)c(C(C)C)c1C [Example 99]	29	35	–
CCc1ccc(NC(=O)Nc2c[nH]c3ccccc23)cc1 [Example H151]	–	–	ameliorated fibrosis and vasculopathy
